Measured values taken from ChEMBL document CHEMBL3779868, “Tetrahydroprotoberberine alkaloids with dopamine and σ receptor affinity” (Bioorg Med Chem, 2016).

Experiments:
D(2) dopamine receptor [1] = biological target: T1, D(2) dopamine receptor (Homo sapiens, UniProt P14416); test: Displacement of [3H]N-methylspiperone from human dopamine D2 receptor by PDSP assay
[2] = biological target: Sigma non-opioid intracellular receptor 1 (Homo sapiens, UniProt Q99720); test: Displacement of [3H](+)-pentazocine from human sigma1 receptor by PDSP assay
D(1A) dopamine receptor = D(1A) dopamine receptor (Homo sapiens, UniProt P21728); test: Displacement of [3H][…] from human dopamine D1 receptor by PDSP assay
D(3) dopamine receptor [3] = biological target: T2, D(3) dopamine receptor (Homo sapiens, UniProt P35462); test: Displacement of [3H]N-methylspiperone from human dopamine D3 receptor by PDSP assay
[4] = Displacement of [3H]DTG from human sigma2 receptor by PDSP assay
MDA-MB-231 = test: Cytotoxicity against human MDA-MB-231 cells assessed as cell viability after 24 hrs by Alamar blue assay; type: functional, cell-based; details: MDA-MB-231, 24 h
Homo sapiens [5] = species: Homo sapiens; test: Selectivity ratio of Ki for human dopamine D2 receptor to human dopamine D3 receptor
Homo sapiens [6] = species: Homo sapiens; test: Selectivity ratio of Ki for human dopamine D3 receptor to human dopamine D1 receptor
Homo sapiens [7] = species: Homo sapiens; test: Selectivity ratio of Ki for human dopamine D2 receptor to human dopamine D1 receptor
Homo sapiens [8] = species: Homo sapiens; test: Selectivity ratio of Ki for human sigma1 receptor to human sigma2 receptor
D(2) dopamine receptor [9] = biological target: T1, D(2) dopamine receptor; test: Displacement of [3H]N-methylspiperone from human dopamine D2 receptor at 50 uM by PDSP assay
D(3) dopamine receptor [10] = biological target: T2, D(3) dopamine receptor; test: Binding affinity to dopamine D3 receptor (unknown origin) by PDSP assay
[11] = Binding affinity to sigma2 receptor (unknown origin) by PDSP assay; design: species or system Homo sapiens

Chain of D(1A) dopamine receptor (P21728 whole entry): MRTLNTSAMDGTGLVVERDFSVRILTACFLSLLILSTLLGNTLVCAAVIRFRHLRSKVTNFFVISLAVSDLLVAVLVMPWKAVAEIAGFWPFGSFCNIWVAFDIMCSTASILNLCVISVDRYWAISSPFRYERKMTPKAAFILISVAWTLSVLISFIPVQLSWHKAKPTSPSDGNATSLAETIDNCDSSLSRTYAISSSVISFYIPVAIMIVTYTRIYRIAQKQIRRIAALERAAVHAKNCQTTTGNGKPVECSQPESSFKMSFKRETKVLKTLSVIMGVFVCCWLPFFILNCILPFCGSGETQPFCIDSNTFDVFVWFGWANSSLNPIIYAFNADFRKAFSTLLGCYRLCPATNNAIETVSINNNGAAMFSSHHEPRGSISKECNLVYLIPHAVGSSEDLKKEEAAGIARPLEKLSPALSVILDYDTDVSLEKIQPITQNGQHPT
T2 sequence (P35462 whole entry): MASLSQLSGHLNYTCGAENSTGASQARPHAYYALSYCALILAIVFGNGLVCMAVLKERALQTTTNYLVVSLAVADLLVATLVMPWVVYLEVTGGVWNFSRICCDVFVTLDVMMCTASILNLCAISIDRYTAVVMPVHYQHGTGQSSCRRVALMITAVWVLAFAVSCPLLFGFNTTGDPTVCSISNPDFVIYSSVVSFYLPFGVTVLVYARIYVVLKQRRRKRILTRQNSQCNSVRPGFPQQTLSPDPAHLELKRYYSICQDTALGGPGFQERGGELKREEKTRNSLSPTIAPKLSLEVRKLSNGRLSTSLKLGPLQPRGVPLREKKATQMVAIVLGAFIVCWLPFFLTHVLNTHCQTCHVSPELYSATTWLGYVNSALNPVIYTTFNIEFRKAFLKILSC
T1 sequence (P14416 whole entry): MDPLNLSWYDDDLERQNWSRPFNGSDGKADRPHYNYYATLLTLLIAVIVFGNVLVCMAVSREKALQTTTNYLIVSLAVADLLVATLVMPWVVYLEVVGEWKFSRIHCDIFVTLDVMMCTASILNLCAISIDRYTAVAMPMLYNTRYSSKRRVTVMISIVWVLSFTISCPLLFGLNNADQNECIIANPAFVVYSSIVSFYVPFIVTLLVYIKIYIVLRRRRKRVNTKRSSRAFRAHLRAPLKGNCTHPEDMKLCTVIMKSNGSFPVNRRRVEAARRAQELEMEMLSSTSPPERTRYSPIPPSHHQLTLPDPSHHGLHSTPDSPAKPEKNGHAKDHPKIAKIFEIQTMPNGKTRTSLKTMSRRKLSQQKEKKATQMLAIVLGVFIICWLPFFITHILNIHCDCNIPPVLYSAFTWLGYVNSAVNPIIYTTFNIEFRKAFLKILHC
Chain of Sigma non-opioid intracellular receptor 1 (Q99720 whole entry): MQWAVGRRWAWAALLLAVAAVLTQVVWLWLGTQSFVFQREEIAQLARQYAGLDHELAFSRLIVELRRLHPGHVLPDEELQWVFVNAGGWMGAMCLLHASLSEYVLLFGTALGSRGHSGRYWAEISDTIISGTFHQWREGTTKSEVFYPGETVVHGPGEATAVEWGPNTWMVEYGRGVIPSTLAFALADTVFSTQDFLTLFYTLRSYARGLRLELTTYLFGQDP

| SMILES | Ki (D(2) dopamine receptor [1]; read-out: Ki) | Ki [2] | Ki (D(1A) dopamine receptor) | Ki (D(3) dopamine receptor [3]) | Ki [4] | IC50 (MDA-MB-231) | Ratio Ki (Homo sapiens [5]) | Ratio Ki (Homo sapiens [6]) | Ratio Ki (Homo sapiens [7]) | Ratio Ki (Homo sapiens [8]) | Ki (D(2) dopamine receptor [1]) | inhibition (D(2) dopamine receptor [9]) | Ki (D(3) dopamine receptor [10]) | Ki [11] |
| --- | --- | --- | --- | --- | --- | --- | --- | --- | --- | --- | --- | --- | --- | --- |
| COc1cc(CCN(C)Cc2cccc(O)c2OC)ccc1O | > 10000 nM | 122 nM | 3110 nM | 2680 nM | 227 nM |  |  |  |  |  |  |  |  |  |
| COc1cc2c(cc1O)C(C)N(Cc1cccc(O)c1OC)CC2 (stereo unspecified) | 1100 nM | 130 nM | 833 nM | 1370 nM | 301 nM |  |  |  |  |  |  |  |  |  |
| CCCCOc1ccc2c(c1OC)CN1CCc3cc(OC)c(O)cc3C1C2 (stereo unspecified) | 121 nM | 13 nM |  | 65 nM | 49 nM |  |  |  |  |  |  |  |  |  |
| COc1cc2c(cc1O)C1Cc3ccc(OC)c(OC)c3CN1CC2 (stereo unspecified) |  |  |  | 37 nM | 1 nM | 178000 nM |  |  |  |  |  |  |  |  |
| COc1cc2c(cc1O)C1Cc3ccc(O)c(OC)c3CN1CC2 (racemic) | 116 nM | 269 nM | 5.6 nM | 101 nM | 9 nM |  | 1.1 | 18 | 20.6 | 30 |  |  |  |  |
| CCCCCCOc1ccc2c(c1OC)CN1CCc3cc(OC)c(O)cc3C1C2 (stereo unspecified) |  | 37 nM | 40 nM | 220 nM | 107 nM |  |  | 5.5 |  | 0.35 | Not Active | < 50% |  |  |
| CCOc1ccc2c(c1OC)CN1CCc3cc(OC)c(O)cc3C1C2 (stereo unspecified) | 159 nM | 124 nM | 12.4 nM | 44 nM | 1.3 nM |  | 3.6 | 3.5 | 12.8 | 95 |  |  |  |  |
| CCCCCOc1ccc2c(c1OC)CN1CCc3cc(OC)c(O)cc3C1C2 (stereo unspecified) | 283 nM | 119 nM | 19 nM | 101 nM | 97 nM |  | 2.8 | 5.3 | 14.9 | 1.22 |  |  |  |  |
| CCCOc1ccc2c(c1OC)CN1CCc3cc(OC)c(O)cc3C1C2 (stereo unspecified) | 99 nM | 57 nM | 7.8 nM | 53 nM | 6.7 nM |  |  |  |  |  |  |  |  |  |
| COc1cc2c(cc1O)C1Cc3ccc(OCCCO)c(OC)c3CN1CC2 (stereo unspecified) | 211 nM | 53 nM | 6.7 nM | 110 nM | 3.8 nM |  | 1.9 | 16.4 | 31.5 | 13.9 |  |  |  |  |
| CCN(CCc1ccc(O)c(OC)c1)Cc1cccc(O)c1OC | > 10000 nM | 350 nM | > 10000 nM | 1810 nM | 788 nM |  |  |  |  |  |  |  |  |  |
| COc1cc2c(cc1O)C1Cc3ccc(OCC4CC4)c(OC)c3CN1CC2 (stereo unspecified) |  | 12 nM | 12 nM |  | 2.4 nM |  |  |  |  |  |  |  |  |  |
| COc1cc2c(cc1O)[C@@H]1Cc3ccc(O)c(OC)c3CN1CC2 [STEPHOLIDINE] |  |  |  |  |  |  |  |  |  |  |  |  | 30 nM | 54 nM |
